# Results taken from PubChem BioAssay AID2060500 (Molecular Pharmacology Branch, DTP, NCI, 2025).
# Test system: 596521-263-R-J1-PDC complex spheroids, viability % of control
# Assay: Anticancer human tumor 596521-263-R-J1-PDC patient-derived soft tissue sarcoma cell line growth inhibition [GQUAD]
# Conditions: for IC50: curve of first compound; for viability, T/C: stronger effect = lower value
# Summary of the method: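 Multi-cell-type spheroids of tumor cells with HUVEC and mesenchymal stem cells, treated with drug combinations. Concentrations descend in half-log steps from near clinical Cmax, or from 10 microM where Cmax is unknown; viability read-out.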
# [1] = second compound 0.0316 µM, first compound 0.0316 µM
# [2] = second compound 0.0316 µM, first compound 0.1 µM
# [3] = second compound 0.0316 µM, first compound 0.316 µM
# [4] = second compound 0.0316 µM, first compound 1 µM
# [5] = second compound 0.0316 µM, first compound 3.16 µM
# [6] = second compound 0.0316 µM, first compound 10 µM
# [7] = second compound 0.1 µM, first compound 0.0316 µM
# [8] = second compound 0.1 µM, first compound 0.1 µM
# [9] = second compound 0.1 µM, first compound 0.316 µM
# [10] = second compound 0.1 µM, first compound 1 µM
# [11] = second compound 0.1 µM, first compound 3.16 µM
# [12] = second compound 0.1 µM, first compound 10 µM
# [13] = second compound 0.316 µM, first compound 0.0316 µM
# [14] = second compound 0.316 µM, first compound 0.1 µM
# [15] = second compound 0.316 µM, first compound 0.316 µM
# [16] = second compound 0.316 µM, first compound 1 µM
# [17] = second compound 0.316 µM, first compound 3.16 µM
# [18] = second compound 0.316 µM, first compound 10 µM
# [19] = second compound 1 µM, first compound 0.0316 µM
# [20] = second compound 1 µM, first compound 0.1 µM
# [21] = second compound 1 µM, first compound 0.316 µM
# [22] = second compound 1 µM, first compound 1 µM
# [23] = second compound 1 µM, first compound 3.16 µM
# [24] = second compound 1 µM, first compound 10 µM
# [25] = second compound 3.16 µM, first compound 0.0316 µM
# [26] = second compound 3.16 µM, first compound 0.1 µM
# [27] = second compound 3.16 µM, first compound 0.316 µM
# [28] = second compound 3.16 µM, first compound 1 µM
# [29] = second compound 3.16 µM, first compound 3.16 µM
# [30] = second compound 3.16 µM, first compound 10 µM
# [31] = second compound 10 µM, first compound 0.0316 µM
# [32] = second compound 10 µM, first compound 0.1 µM
# [33] = second compound 10 µM, first compound 0.316 µM
# [34] = second compound 10 µM, first compound 1 µM
# [35] = second compound 10 µM, first compound 3.16 µM
# [36] = second compound 10 µM, first compound 10 µM
# 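Further: spheroids exposed to drugs for 7 days before viability reading.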
# 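Wherever viability, T/C is given: 100% = DMSO vehicle control viability.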
smiles,measurement,setting,value
COc1cccc2c1C(=O)c1c(O)c3c(c(O)c1C2=O)CC(O)(C(=O)CO)CC3OC1CC(N)C(O)C(C)O1 (stereo unspecified) + Cc1[nH]c2ccc(F)cc2c1-c1nc2c3cccnc3c3ncccc3c2[nH]1,IC50,second compound 0.0316 µM,719 nM
same,IC50,second compound 0.1 µM,655 nM
same,IC50,second compound 0.316 µM,802 nM
same,IC50,second compound 1 µM,578 nM
same,IC50,second compound 3.16 µM,965 nM
same,IC50,second compound 10 µM,700 nM
same,"viability, T/C",[1],98%
same,"viability, T/C",[2],76.6%
same,"viability, T/C",[3],64%
same,"viability, T/C",[4],48.9%
same,"viability, T/C",[5],26.6%
same,"viability, T/C",[6],3.55%
same,"viability, T/C",[7],93.8%
same,"viability, T/C",[8],77%
same,"viability, T/C",[9],57.9%
same,"viability, T/C",[10],44.9%
same,"viability, T/C",[11],29.7%
same,"viability, T/C",[12],4.66%
same,"viability, T/C",[13],112%
same,"viability, T/C",[14],70.3%
same,"viability, T/C",[15],68%
same,"viability, T/C",[16],54.5%
same,"viability, T/C",[17],27.1%
same,"viability, T/C",[18],3.9%
same,"viability, T/C",[19],96.5%
same,"viability, T/C",[20],66.5%
same,"viability, T/C",[21],59.2%
same,"viability, T/C",[22],50.4%
same,"viability, T/C",[23],25.6%
same,"viability, T/C",[24],4.37%
same,"viability, T/C",[25],82.7%
same,"viability, T/C",[26],68.9%
same,"viability, T/C",[27],63.2%
same,"viability, T/C",[28],54.9%
same,"viability, T/C",[29],25.7%
same,"viability, T/C",[30],3.86%
same,"viability, T/C",[31],75.1%
same,"viability, T/C",[32],62.4%
same,"viability, T/C",[33],62.6%
same,"viability, T/C",[34],45.9%
same,"viability, T/C",[35],25.6%
same,"viability, T/C",[36],3.33%
Nc1ccn(C2OC(CO)C(O)C2(F)F)c(=O)n1 (stereo unspecified) + Cc1[nH]c2ccc(F)cc2c1-c1nc2c3cccnc3c3ncccc3c2[nH]1,IC50,second compound 0.0316 µM,34.7 nM
same,IC50,second compound 0.1 µM,58.1 nM
same,IC50,second compound 0.316 µM,< 31.6 nM
same,IC50,second compound 1 µM,< 31.6 nM
same,IC50,second compound 3.16 µM,125 nM
same,IC50,second compound 10 µM,< 31.6 nM
same,"viability, T/C",[1],54.6%
same,"viability, T/C",[2],45.5%
same,"viability, T/C",[3],38.1%
same,"viability, T/C",[4],38.7%
same,"viability, T/C",[5],42.6%
same,"viability, T/C",[6],32.9%
same,"viability, T/C",[7],57%
same,"viability, T/C",[8],47.2%
same,"viability, T/C",[9],38%
same,"viability, T/C",[10],47.2%
same,"viability, T/C",[11],39.2%
same,"viability, T/C",[12],41.5%
same,"viability, T/C",[13],57%
same,"viability, T/C",[14],39%
same,"viability, T/C",[15],36.4%
same,"viability, T/C",[16],44.2%
same,"viability, T/C",[17],45.4%
same,"viability, T/C",[18],41.1%
same,"viability, T/C",[19],53.3%
same,"viability, T/C",[20],38.3%
same,"viability, T/C",[21],43.6%
same,"viability, T/C",[22],39.3%
same,"viability, T/C",[23],40.8%
same,"viability, T/C",[24],37.9%
same,"viability, T/C",[25],60.7%
same,"viability, T/C",[26],49.2%
same,"viability, T/C",[27],43%
same,"viability, T/C",[28],42%
same,"viability, T/C",[29],42.7%
same,"viability, T/C",[30],30.7%
same,"viability, T/C",[31],56.7%
same,"viability, T/C",[32],37.3%
same,"viability, T/C",[33],38.8%
same,"viability, T/C",[34],32.7%
same,"viability, T/C",[35],38.2%
same,"viability, T/C",[36],36.3%
O=c1[nH]cc(F)c(=O)[nH]1 + Cc1[nH]c2ccc(F)cc2c1-c1nc2c3cccnc3c3ncccc3c2[nH]1,IC50,second compound 0.0316 µM,> 10000 nM
same,IC50,second compound 0.1 µM,> 10000 nM
same,IC50,second compound 0.316 µM,> 10000 nM
same,IC50,second compound 1 µM,> 10000 nM
same,IC50,second compound 3.16 µM,> 10000 nM
same,IC50,second compound 10 µM,> 10000 nM
same,"viability, T/C",[1],98.4%
same,"viability, T/C",[2],105%
same,"viability, T/C",[3],100%
same,"viability, T/C",[4],101%
same,"viability, T/C",[5],101%
same,"viability, T/C",[6],98.3%
same,"viability, T/C",[7],100%
same,"viability, T/C",[8],101%
same,"viability, T/C",[9],101%
same,"viability, T/C",[10],105%
same,"viability, T/C",[11],94.9%
same,"viability, T/C",[12],95.1%
same,"viability, T/C",[13],90.8%
same,"viability, T/C",[14],104%
same,"viability, T/C",[15],106%
same,"viability, T/C",[16],113%
same,"viability, T/C",[17],118%
same,"viability, T/C",[18],81.8%
same,"viability, T/C",[19],100%
same,"viability, T/C",[20],96.6%
same,"viability, T/C",[21],100%
same,"viability, T/C",[22],88.9%
same,"viability, T/C",[23],93.9%
same,"viability, T/C",[24],86.6%
same,"viability, T/C",[25],96%
same,"viability, T/C",[26],95.4%
same,"viability, T/C",[27],88.5%
same,"viability, T/C",[28],86.7%
same,"viability, T/C",[29],89.1%
same,"viability, T/C",[30],82.4%
same,"viability, T/C",[31],63.3%
same,"viability, T/C",[32],70.6%
same,"viability, T/C",[33],80.7%
same,"viability, T/C",[34],77.5%
same,"viability, T/C",[35],76.4%
same,"viability, T/C",[36],72.4%
